Patent US9260710B2, “Photocleavable linker” (City of Hope, priority 2012, dated 2016)

Key:
[1] = molecular target: T1, LC8 and FKBP-LC8TRAP (Homo sapiens, UniProt P62942, F37V); test: Native PAGE of LC8-LC8TRAP complex formation induced by dimerizer; type: biochemical; details: for complex formation between LC8 and FKBP-LC8TRAP (new band): native PAGE, addition of dimerization agent
T1 construct: made in house; host or cells: bacteria (pET21D vector)
Procedure: (§1) Native PAGE. Each of, LC8 and FKBP-LC8TRAP, were mixed in a molar concentration of 50 μM and 1.2 molar excess (60 μM) of AP20187 or 2.4 molar excess (120 μM) of PhAP20187. The mix were incubated at 4° C. for 5 min. Native PAGE analysis was performed at 16° C. using 8-25% gradient gels on the PHASTSYSTEM™ (GE Biosciences).
We then tested whether this replacement of the amine linker with the o-nitrobenzyl moiety affected the dimerization of FKBP in vitro. We used native PAGE to follow the formation of the LC8-LC8 molecular trap (LC8TRAP) complex induced by addition of PhAP. See e.g., Varma et al., 2010 (Id.) Upon the addition of PhAP to an equimolar mixture of LC8 and LC8TRAP, we observed a new band that migrated the same distance as the band produced by addition of AP (FIG. 2A).
Native PAGE analysis was conducted for stoichiometric complex formation between LC8 and FKBP-LC8TRAP on addition of dimerization agent AP.

[2] = test system: LC8-LC8TRAP complex; test: UV light (350 nm) disruption of dimerizer-LC8-LC8TRAP complex, native PAGE; type: biochemical; details: UV 350 nm
Procedure: as §1
Next, we characterized how well UV light could disrupt the PhAP-LC8-LC8TRAP complex in vitro. We generated the PhAP-LC8-LC8TRAP and AP-LC8-LC8TRAP complexes and exposed each to UV light (350 nm). Native PAGE indicated loss of the band corresponding to the PhAP-LC8-LC8TRAP complex and an increase in intensity of bands corresponding to the individual components after UV induction. The band corresponding to the PhAP-LC8-LC8TRAP complex was less intense in samples that received a five min exposure to UV light and undetectable after a 10 min exposure. On the other hand, the LC8-LC8TRAP complex induced by the non-photocleavable AP persisted, even after a 30 min exposure to UV light (FIG. 2C).

[3] = test system: EGFP-FKBP-LC8TRAP transfected COS1 cells; test: Reversibility of endosome dispersion after UV induction; type: cell-based; details: for Percentage of endosomes dispersion (recovery): UV 10 min
Procedure: Cell Culture. COS1 cells were cultured in DMEM (CELLGRO®) supplemented with 10% fetal bovine/calf serum (Omega Scientific). Transfection was performed in 80-90% confluent 24-h cultures of COS1 cells using LIPOFECTAMINE™ 2000 (Invitrogen) and OPTI-MEM™ media (GIBCO®) according to the manufacturer's recommendations. Various concentrations (0 nM to 1000 nM) of AP (Ariad Pharmaceuticals Inc.) and PhAP (as described herein) were added to each experimental wells 24 hr. post transfection and incubated for different periods of time before analyzing the cells. For reversibility of endosome dispersion studies, 500 nM of AP/PhAP were used. In each case, the cells were washed well with PBS and supplemented with fresh media before inducing with UV light (10 mins., 4 W, 350 nm) and allowed to recover for various time period at 37° C., before analysis.
Immunostaining and Microscopy. For immunostaining, transiently transfected COS1 cells were fixed with 3.7% formaldehyde at room temperature for 10 min, and subsequent immunostaining was performed as described previously^[2]. Briefly, COS 1 cells grown on 25-mm coverslips were washed 3× with PBS, treated with 3.7% formaldehyde (Sigma) in PBS for fixation, and permeabilized in 0.5% Triton X-100 (Sigma) in PBS at room temperature for 10 min. Cells were then incubated with blocking buffer containing 4% skimmed milk (fat free) and 0.5% Triton X-100 in PBS. Anti-EEA1 monoclonal antibody was added to label early endosome marker protein at a dilution of 1:100 in the same buffer for 30 min at RT, and the coverslips were washed and incubated with rhodamine-conjugated donkey anti-mouse secondary antibody (1:100). After washing, the coverslips were mounted on slides to visualize the trapping effects. Samples were viewed using an Olympus IX81 automated inverted microscope equipped with water immersion 60× objective. The level of dispersion was quantified by counting 100 cells per coverslip. Each experiment was performed in triplicate. Images were obtained using a Spot RT Slider high-resolution cooled CCD camera equipped to IX81 microscope and Image-Pro software. Images were cropped and processed using Adobe Photoshop 7.0 (Adobe Systems).
UV induction. For UV-induction and recovery of endosome studies, cells were washed with PBS and fresh media were added after drug treatment. The washed cells were then treated with a hand held UV-lamp (365 nm/4 watt) for 10 mins. The cells were then left to recover at 37° C. for varying period of time before staining and analysis.
Next, we characterized the reversibility of endosome dispersion in COS1 cells UV-induced cleavage of PhAP. In these experiments, transiently transfected cells were incubated with PhAP (500 nM) or AP for times ranging from 0-2 h, after which cells were washed rapidly, replenished with fresh media, and then exposed to UV light (10 min, 4 W, 350 nm). The cells were then fixed at 0, 1, 2, 4, and 8 h post UV radiation and the endosomes imaged using fluorescence microscopy at 60× magnification. We observed a gradual recovery of endosomes to the perinuclear region during the first 4 h after UV exposure (44.1±2.3%), with a slight increase in dispersion after 8 h (48.9±3.9%), for cells treated with PhAP (FIG. 3A).

[4] = 30 mins. treatment (500 nM), recovery 0 h
[5] = 30 mins. treatment (500 nM), recovery 1 h
[6] = 30 mins. treatment (500 nM), recovery 2 h
[7] = 30 mins. treatment (500 nM), recovery 4 h
[8] = 30 mins. treatment (500 nM), recovery 8 h
[9] = 1 hr. treatment (500 nM), recovery 0 h
[10] = 1 hr. treatment (500 nM), recovery 1 h
[11] = 1 hr. treatment (500 nM), recovery 2 h
[12] = 1 hr. treatment (500 nM), recovery 4 h
[13] = 1 hr. treatment (500 nM), recovery 8 h
[14] = 2 hr. treatment (500 nM), recovery 0 h
[15] = 2 hr. treatment (500 nM), recovery 1 h
[16] = 2 hr. treatment (500 nM), recovery 2 h
[17] = 2 hr. treatment (500 nM), recovery 4 h
[18] = 2 hr. treatment (500 nM), recovery 8 h

T1 sequence (P62942 with tags, fused parts or gaps F37V): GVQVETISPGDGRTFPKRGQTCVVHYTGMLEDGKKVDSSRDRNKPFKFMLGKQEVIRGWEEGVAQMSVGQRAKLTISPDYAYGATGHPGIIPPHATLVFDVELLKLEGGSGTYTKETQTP

Row | SMILES | complex formation between LC8 and FKBP-LC8TRAP (new band) [1] | Percentage of endosomes dispersion (recovery) [3, 4] [%] | Percentage of endosomes dispersion (recovery) [3, 5] [%] | Percentage of endosomes dispersion (recovery) [3, 6] [%] | Percentage of endosomes dispersion (recovery) [3, 7] [%] | Percentage of endosomes dispersion (recovery) [3, 8] [%] | Percentage of endosomes dispersion (recovery) [3, 9] [%] | Percentage of endosomes dispersion (recovery) [3, 10] [%] | Percentage of endosomes dispersion (recovery) [3, 11] [%] | Percentage of endosomes dispersion (recovery) [3, 12] [%] | Percentage of endosomes dispersion (recovery) [3, 13] [%] | Percentage of endosomes dispersion (recovery) [3, 14] [%] | Percentage of endosomes dispersion (recovery) [3, 15] [%] | Percentage of endosomes dispersion (recovery) [3, 16] [%] | Percentage of endosomes dispersion (recovery) [3, 17] [%] | Percentage of endosomes dispersion (recovery) [3, 18] [%] | other results
1 | CCC(C(=O)N1CCCCC1C(=O)OC(CCc1ccc(OC)c(OC)c1)c1cccc(OCC(=O)NCC(CNC(=O)COc2cccc(C(CCc3ccc(OC)c(OC)c3)OC(=O)C3CCCCN3C(=O)C(CC)c3cc(OC)c(OC)c(OC)c3)c2)CN(C)C)c1)c1cc(OC)c(OC)c(OC)c1 (centres unmarked) [AP, AP20187] | produces a new band | 51.8 ± 4.4 | 64.7 ± 2.0 | 68.3 ± 3.7 | 69.8 ± 4.3 | 67.9 ± 1.9 | 58.0 ± 4.3 | 71.2 ± 2.5 | 69.7 ± 3.6 | 70.4 ± 3.1 | 70.8 ± 1.9 | 69.1 ± 3.2 | 68.9 ± 3.2 | 70.7 ± 4.0 | 69.5 ± 1.9 | 70.3 ± 3.3 | band of dimerizer-LC8-LC8TRAP complex after UV exposure ([2]; 30 min exposure): persisted; endosome dispersion after UV exposure, all time points ([3]; 0-8 h post UV, with or without UV exposure): remained dispersed at all time points evaluated; saturation point of endosome dispersion ([3]; 30 minutes or 1 hr treatment followed by UV exposure): ~70%
2 | CC[C@H](C(=O)N1CCCC[C@H]1C(=O)O[C@H](CCc1ccc(OC)c(OC)c1)c1cccc(OCC(=O)OC(C)c2ccc(C(C)OC(=O)COc3cccc([C@@H](CCc4ccc(OC)c(OC)c4)OC(=O)[C@@H]4CCCCN4C(=O)[C@@H](CC)c4cc(OC)c(OC)c(OC)c4)c3)c([N+](=O)[O-])c2)c1)c1cc(OC)c(OC)c(OC)c1 (some centres unmarked) [PhAP] | can also form complex between LC8 and FKBP-LC8TRAP efficiently | 53.2±2.4 | 53.7 ± 4.0 | 50.8 ± 2.3 | 48.0 ± 0.5 | 49.3 ± 6.7 | 57.8±8.0 | 56.4 ± 1.7 | 55.7 ± 8.8 | 46.7 ± 0.6 | 48.1 ± 2.0 | 69.5 ± 2.4 | 66.3 ± 3.2 | 57.6 ± 2.6 | 44.1±2.3 | 48.9±3.9 | concentration required to produce a complex band of the same intensity as the sample treated with AP ([1]; equimolar mixture of LC8 and LC8TRAP, relative to AP): 2 ×; band of dimerizer-LC8-LC8TRAP complex after UV exposure ([2]; 10 min exposure): undetectable; band of dimerizer-LC8-LC8TRAP complex after UV exposure ([2]; five min exposure): less intense
